Data: publication PMC12109561, “LPS2336, a New TREK-1 Channel Activator Identified by High Throughput Screening” (Biomolecules, 2025)
Read-outs that look alike come from different tables or passages of the source.

What was measured:
hTREK-1 [1] = molecular target: T1, hTREK-1 (Homo sapiens, UniProt O95069)
T1 sequence (O95069 1-422 isoform O95069-3): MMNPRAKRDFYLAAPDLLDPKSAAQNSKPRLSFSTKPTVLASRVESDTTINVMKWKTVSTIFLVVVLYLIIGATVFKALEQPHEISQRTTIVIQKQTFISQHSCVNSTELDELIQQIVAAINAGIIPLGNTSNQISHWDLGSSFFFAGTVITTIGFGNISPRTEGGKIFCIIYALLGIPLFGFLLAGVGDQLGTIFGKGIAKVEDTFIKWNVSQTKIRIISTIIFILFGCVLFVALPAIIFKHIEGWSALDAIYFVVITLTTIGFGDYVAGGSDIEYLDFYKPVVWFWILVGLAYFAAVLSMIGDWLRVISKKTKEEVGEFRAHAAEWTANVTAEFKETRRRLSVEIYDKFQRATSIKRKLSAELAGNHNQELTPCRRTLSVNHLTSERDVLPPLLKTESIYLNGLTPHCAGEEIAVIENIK

naive HEK293 cells = test: Thallium flux assay on naive (untransfected) HEK293 cells; conditions: 10 µM
Procedure: Cells were plated in 384-well plates with black walls and clear bottom coated with poly-D-lysine (Greiner Bio-One, Kremsmünster, Austria, #781946) at a density of 25 000 cells/well from a 1 250 000 cells/mL solution. Cell counting was performed with an automatic cell counter (Countness II FL, ThermoFisher, Waltham, MA, USA) with addition of trypan blue 0.2% to exclude dead cells. 24 h after plating, cells were incubated with FluxOR II green probe (ThermoFisher) for 1 h in the dark, accordingly to the supplier’s protocol (‘no wash’ procedure) with addition of 77 mg/mL probenecide. […] Fluorescence was measured every 3 s during 1 min (excitation 485 nm, emission 515 nm), and 0.5 mM thallium was added to the wells after a 20 s baseline. […] Fluorescence is normalized using the formula (F − F0)/F0 where F0 is the average fluorescence during the first 18 s of the recording. ΔFmax/F0 is calculated between 18 and 33 s (−2 to 13 s relative to thallium addition). For dose–response curves, ΔFmax/F0 are expressed as %vehicle (100% corresponding to the average ΔFmax/F0 measured in vehicle-treated wells). For high throughput screening, Z scores were calculated as(1) Z=Xsample−X¯neg/σneg where X represents ΔFmax/F0 and σ the ΔFmax/F0 standard deviation. ‘neg’ represents negative controls (vehicle-treated wells). […]

hTREK-1 [2] = molecular target: T1, hTREK-1; test: Whole cell patch clamp on HEK-hTREK-1 cells; format: cell-based; set-up: transfected with the human Kcnk2 (NM_001017424) or Kcnk10 (NM_021161) ORF cloned in a pEZ-M02 expression vector
CD1 mice [3] = test: Hargreaves test in carrageenan-induced paw inflammation; format: in vivo, mouse
[4] = tested on: WT and TREK-1 KO littermates of C57Bl6/J background; test: Body temperature monitoring (rectal probe); format: in vivo, mouse; conditions: i.p. 40 mg/kg, 15 min after injection minus before
Excerpt: (§1) TREK-1^−/− mice were generated by crossing mice carrying an allele of the Kcnk2 gene in which exon 3 was floxed (RRID:MGI:3050295) with ZP3-Cre mice (RRID:MGI:3835429), both in C57Bl6/J background. F1 females, producing TREK-1^+/− oocytes, were crossed with WT males. TREK-1^+/− F2 offspring not carrying the ZP3-Cre transgene were finally crossed together to generate TREK-1^−/− and TREK-1^+/+ littermates, which were weaned in separate cages after genotyping using 2 mm tail samples taken at 10 days of age. Animals were identified by digital tattoos at 3 weeks of age.
Body temperature was measured using a rectal probe in awake animals before and 15, 30 and 45 min after injection of LPS2336.
To search for possible adverse effects induced by LPS2336 in vivo, we submitted CD1 mice to different confounding tests aiming at characterizing motor coordination, balance, muscle strength and spontaneous locomotor activity. […] To assess the contribution of TREK-1 to this adverse effect, we submitted TREK-1 knock-out mice (which are of the C57Bl6/J background) to the same test, 15 min following the injection of 50 mg/kg LPS2336. […] Finally, we monitored the body temperature of mice for 45 min after intraperitoneal injection of LPS2336 at 40 mg/kg and could observe hypothermia in both WT and TREK-1 KO (−2.4 and −2.6 °C, respectively) following LPS2336 treatment (Figure 7F,G).

[5] = tested on: WT and TREK-1 KO littermates of C57Bl6/J background; test: Open field test in WT and TREK-1 KO littermates; format: in vivo, mouse; conditions: i.p. 50 mg/kg
Excerpt: as §1
(§2) Mice were placed in the center of a 50 × 50 cm arena with 45 cm high walls. Animals were filmed for 10 min and the distance traveled was measured using video-tracking software (Viewpoint Videotrack 5.13.0.10).
(§3) To search for possible adverse effects induced by LPS2336 in vivo, we submitted CD1 mice to different confounding tests aiming at characterizing motor coordination, balance, muscle strength and spontaneous locomotor activity. […] Finally, we monitored the body temperature of mice for 45 min after intraperitoneal injection of LPS2336 at 40 mg/kg and could observe hypothermia in both WT and TREK-1 KO (−2.4 and −2.6 °C, respectively) following LPS2336 treatment (Figure 7F,G).

[6] = tested on: WT and TREK-1 KO littermates of C57Bl6/J background; test: Horizontal bar test in WT and TREK-1 KO littermates; format: in vivo, mouse; conditions: i.p. 50 mg/kg, 15 min
Excerpt: as §1
A 13 cm long, 2 mm diameter metal bar was placed horizontally between 2 rods at a 30 cm height. […] After gently releasing the tail, the time taken by mice to climb on the bar (grabbing it with their four paws) was monitored.
as §3

hTREK-1 [7] = molecular target: T1, hTREK-1; test: cell-based
CD1 mice [8] = test: Open field test in CD1 mice; format: in vivo, mouse; conditions: i.p., 15 min before open field test
Procedure: as §2
To search for possible adverse effects induced by LPS2336 in vivo, we submitted CD1 mice to different confounding tests aiming at characterizing motor coordination, balance, muscle strength and spontaneous locomotor activity. […] To assess the contribution of TREK-1 to this adverse effect, we submitted TREK-1 knock-out mice (which are of the C57Bl6/J background) to the same test, 15 min following the injection of 50 mg/kg LPS2336. […] We finally submitted the mice to a third test consisting in observing their spontaneous locomotion in an open arena (open field test). […] Finally, we monitored the body temperature of mice for 45 min after intraperitoneal injection of LPS2336 at 40 mg/kg and could observe hypothermia in both WT and TREK-1 KO (−2.4 and −2.6 °C, respectively) following LPS2336 treatment (Figure 7F,G).

[9] = 50 µM, HEK-hTREK-1 cells, vs vehicle

## N#CCCN1CCC(Cc2ccccc2)CC1 [2a]
hTREK-1 [1]
  TREK-1 activation by analogs: profound decrease in TREK-1 activation

## CC1CCN(CC#N)CC1 [2b]
hTREK-1 [1]
  TREK-1 activation by analogs: loss of TREK-1 activation

## CCC#CCN1CCC(Cc2ccccc2)CC1 [2c]
hTREK-1 [1]
  TREK-1 activation by analogs: profound decrease in TREK-1 activation

## N#CCN1CCCCC1 [2d]
hTREK-1 [1]
  TREK-1 activation by analogs: loss of TREK-1 activation

## N#CCCCN1CCC(Cc2ccccc2)CC1 [2e]
hTREK-1 [1]
  TREK-1 activation by analogs: profound decrease in TREK-1 activation

## c1ccc(CC2CCN(Cc3ccccc3)CC2)cc1 [2f]
hTREK-1 [1]
  TREK-1 activation by analogs: profound decrease in TREK-1 activation

## CCCCN1CCC(Cc2ccccc2)CC1 [2g]
hTREK-1 [1]
  TREK-1 activation by analogs: profound decrease in TREK-1 activation

## CCOC(=O)CN1CCC(Cc2ccccc2)CC1 [2h]
hTREK-1 [1]
  TREK-1 activation by analogs: severely impacted TREK-1 activation ability

## O=C(O)CN1CCC(Cc2ccccc2)CC1 [2i]
hTREK-1 [1]
  TREK-1 activation by analogs: severely impacted TREK-1 activation ability

## NCCN1CCC(Cc2ccccc2)CC1 [2j]
hTREK-1 [1]
  TREK-1 activation by analogs: severely impacted TREK-1 activation ability

## NC(=O)CN1CCC(Cc2ccccc2)CC1 [2k]
hTREK-1 [1]
  TREK-1 activation by analogs: severely impacted TREK-1 activation ability

## c1ccc(-c2nn[nH]n2)c(Nc2cccc3c2CCCC3)c1 [BL-1249, reference compound]
Naive HEK293 cells
  effect on fluorescence in naive cells: no effect
hTREK-1 [1]
  concentrations at which active on TREK-1: active at sub-micromolar concentrations
hTREK-1 [1]; 100 µM
  toxicity to HEK-hTREK-1 cells: visible cell death

## Nc1ccc(Oc2ccc(C(c3ccc(Oc4ccc(N)cc4)cc3)(C(F)(F)F)C(F)(F)F)cc2)cc1 [GI-530159]
hTREK-1 [2]; [9]
  increase of mean current density recorded at 0 mV: 9.73 fold

## N#CCN1CCC(Cc2ccccc2)CC1 [LPS2336]
CD1 mice [3]; intracerebroventricular, effect similar to 1 µg morphine
  dose able to reverse the pain phenotype: 100 µg
CD1 mice [3]; intraperitoneal
  dose at which the analgesic effect reaches a plateau: 20 mg/kg
  time of peak analgesia after injection: 15 min
CD1 mice [3]; intraperitoneal, carrageenan-injected CD1 mice
  dose from which pain thresholds are increased: ≥ 20 mg/kg
CD1 mice [3]; intrathecal, 300 µg (1400 nmol)
  effect on pain thresholds at the highest intrathecal dose: slight, non-significant effect
CD1 mice [3]; intrathecal, doses up to 300 µg
  pain relief after intrathecal administration: not effective
[4]; C57Bl6/J WT
  change in body temperature (hypothermia), WT mice: −2.4 °C
[4]; TREK-1 KO
  change in body temperature (hypothermia), TREK-1 KO mice: −2.6 °C
[5]
  open field test, WT vs TREK-1 KO: no difference between WT and TREK-1 KO mice
  spontaneous locomotion in C57Bl6/J mice: same adverse effect as CD1 mice
[6]
  horizontal bar test, WT vs TREK-1 KO: no difference between WT and TREK-1 KO mice
[6]; C57Bl6/J WT
  time to climb on horizontal bar in WT littermates: same increase in time to climb
hTREK-1 [7]
  EC50: 11.8 µM
hTREK-1 [1]
  average Z score in high throughput screening: 3.50 ± 0.24
  times over the positivity threshold: 3/3
CD1 mice [8]
  dose from which spontaneous locomotion is decreased: ≥ 30 mg/kg
hTREK-1 [2]
  increase of mean current density recorded at 0 mV: 10.77 fold

## O=C(NCCCCN1CCN(Cc2ccccc2)CC1)c1ccc2ccccc2c1 [LPS6257]
hTREK-1 [1]
  change in ΔFmax/F0 compared to the vehicle condition: −70%

## CS(=O)(=O)Nc1ccc(C(=O)NCc2ccc(Cl)cc2Cl)cc1 [ML335, reference compound]
hTREK-1 [1]
  increase in ΔFmax/F0: 2.60 fold
hTREK-1 [1]; 100 µM
  effect of salification on TREK-1 activation: increased TREK-1 activation
hTREK-1 [1]; read-out: EC50 (TREK-1 activation, thallium assay)
  EC50: 6.7 µM
hTREK-1 [2]; [9]
  increase of mean current density recorded at 0 mV: 13.35 fold

## Cc1cc(Cl)ccc1OCCNC(=O)c1cccs1 [ML402, reference compound]
hTREK-1 [1]; 100 µM
  effect of salification on TREK-1 activation: increased TREK-1 activation

## CNCCC(Oc1ccc(C(F)(F)F)cc1)c1ccccc1 (centres unmarked) [fluoxetine, reference compound]
hTREK-1 [1]
  TREK-1 activation (ΔFmax/F0): 54 % of vehicle

## CN1CC[C@]23c4c5ccc(O)c4O[C@H]2[C@@H](O)C=C[C@H]3[C@H]1C5 [morphine, reference compound]
CD1 mice [3]; intracerebroventricular, 1 µg (3.5 nmol)
  analgesia after intracerebroventricular administration: analgesic
CD1 mice [3]; intrathecal, 3 µg (10.5 nmol)
  analgesia after intrathecal administration: long-lasting analgesia
